Holding throughout (experiment): cells
In one assay the test system is PC-3. Conditions: Homo sapiens, PC-3, 72 h.
In a further assay the test system is A549. Particulars: Homo sapiens, A549, 72 h.
The subject of the next assay is MCF7. Conditions: Homo sapiens, MCF7, 72 h.
The subject of a further assay is HepG2. Particulars: Homo sapiens, HepG2, 72 h.

Molecules are shown by their SMILES.

Description for A549: Cytotoxicity against human A549 cells assessed as reduction in cell viability after 72 hrs by MTT assay
Description for HepG2: Cytotoxicity against human HepG2 cells assessed as reduction in cell viability after 72 hrs by MTT assay
Description for MCF7: Cytotoxicity against human MCF7 cells assessed as reduction in cell viability after 72 hrs by MTT assay
Description for PC-3: Cytotoxicity against human PC3 cells assessed as reduction in cell viability after 72 hrs by MTT assay

One may read the IC50 as the concentration that gives 50% inhibition. Read a low IC50 as inhibition by little substance. As to `Cc1cc(=O)n(-c2cccc(F)c2)nc1C(=O)Nc1ccc(Oc2ncnc3c2ccn3C)cc1`, the IC50 was above 60 µM with PC-3, 23.4 µM in the assay with A549, 30.8 µM with MCF7 and above 60 µM in the assay on HepG2.
Take `Cc1ccc(-n2nc(C(=O)Nc3ccc(Oc4ncnc5[nH]ccc45)c(F)c3)c(C)cc2=O)cc1`: the IC50 in the assay on PC-3 is 20.4 µM; in the assay on A549 it was 18.5 µM; with MCF7, 18.9 µM; in the assay on HepG2, 18.8 µM.
The matching figures for `O=C(Nc1ccc(Oc2ccnc3[nH]ccc23)cc1)c1nn(-c2ccc(Br)cc2)ccc1=O`: 8.04 µM, 6.24 µM, 7.89 µM and 4.28 µM.
In the same order, the values of `Cc1cc(=O)n(-c2ccccc2C(F)(F)F)nc1C(=O)Nc1ccc(Oc2ncnc3c2ccn3C)cc1` are 19.1 µM, 5.86 µM, 7.84 µM and 27.2 µM.
In the same order, the values of `Cc1cc(=O)n(-c2cccc(F)c2)nc1C(=O)Nc1ccc(Oc2ncnc3c2ccn3C)c(F)c1` are 8.99 µM, above 60 µM, above 60 µM and above 60 µM.
For the compound `O=C(Nc1ccc(Oc2ccnc3[nH]ccc23)c(F)c1)c1nn(-c2ccc(Cl)c(F)c2)ccc1=O`, the IC50 with PC-3 was found to be 13.6 µM; in the assay with A549, 10.3 µM; in the assay on MCF7 it was 11.6 µM; in the assay on HepG2, 9.61 µM.
For `Cc1cc(=O)n(-c2ccc(F)cc2)nc1C(=O)Nc1ccc(Oc2ncnc3[nH]ccc23)c(F)c1`, the IC50 came out at 17.3 µM in the assay with PC-3, 42.4 µM in the assay with A549, 24.5 µM with MCF7 and 12.8 µM with HepG2.
On to `Cn1ccc2c(Oc3ccc(NC(=O)c4nn(-c5ccc(Br)cc5)ccc4=O)cc3F)ccnc21`, for which the concentration for half-maximal inhibition (IC50) was above 60 µM in the assay with PC-3, above 60 µM with A549, 33.6 µM with MCF7 and above 60 µM in the assay on HepG2.
For the compound `Cc1cc(=O)n(-c2ccccc2Cl)nc1C(=O)Nc1ccc(Oc2ncnc3c2ccn3C)c(F)c1`, the IC50 in the assay with PC-3, with A549, in the assay on MCF7 and in the assay on HepG2 was above 60 µM throughout.
`COc1ccc(-n2ccc(=O)c(C(=O)Nc3ccc(Oc4ccnc5c4ccn5C)c(F)c3)n2)cc1`: the IC50 in the assay on PC-3, in the assay with A549, in the assay on MCF7 and in the assay with HepG2 was above 60 µM throughout.
As to `Cn1ccc2c(Oc3ccc(NC(=O)c4nn(-c5ccc(Br)cc5F)ccc4=O)cc3F)ccnc21`, the IC50 was found to be 16.3 µM in the assay on PC-3, 26.8 µM in the assay with A549, 14.1 µM in the assay on MCF7 and 23.9 µM in the assay on HepG2.
For the compound `Cn1ccc2c(Oc3ccc(NC(=O)c4nn(-c5ccc(Cl)c(F)c5)ccc4=O)cc3F)ccnc21`, the concentration for half-maximal inhibition (IC50) in the assay with PC-3 was 17.9 µM; in the assay with A549 it was above 60 µM; in the assay on MCF7, 16.6 µM; in the assay on HepG2, 22.1 µM.
As to `Cc1cc(=O)n(-c2ccccc2OC(F)(F)F)nc1C(=O)Nc1ccc(Oc2ncnc3[nH]ccc23)c(F)c1`, the IC50 with PC-3 is above 60 µM; in the assay with A549, 16.2 µM; in the assay with MCF7, 11.7 µM; in the assay with HepG2, above 60 µM.
`Cc1cc(=O)n(-c2ccc(Br)cc2F)nc1C(=O)Nc1ccc(Oc2ncnc3[nH]ccc23)c(F)c1`: the IC50 in the assay on PC-3 came to 13.3 µM; in the assay on A549, 6.12 µM; in the assay on MCF7, 26.6 µM; in the assay on HepG2 it was 32 µM.
In the same order, the values of `COc1ccc(-n2ccc(=O)c(C(=O)Nc3ccc(Oc4ccnc5c4ccn5C)cc3)n2)cc1` are above 60 µM, above 60 µM, above 60 µM and above 60 µM.
In the same order, the values of `Cc1cc(=O)n(-c2ccccc2OC(F)(F)F)nc1C(=O)Nc1ccc(Oc2ncnc3c2ccn3C)cc1` are 5.16 µM, 25.2 µM, 27 µM and above 60 µM.
In the same order, the values of `COc1ccc(-n2ccc(=O)c(C(=O)Nc3ccc(Oc4ccnc5[nH]ccc45)c(F)c3)n2)cc1` are 46.4 µM, above 60 µM, 55.4 µM and above 60 µM.
Turning to `O=C(Nc1ccc(Oc2ccnc3[nH]ccc23)c(F)c1)c1nn(-c2ccc(Br)cc2F)ccc1=O`, the half-maximal inhibitory concentration (IC50) worked out at 8.8 µM in the assay on PC-3, 55.7 µM with A549, 23.5 µM in the assay with MCF7 and 56.5 µM with HepG2.
The matching figures for `Cc1cc(=O)n(-c2ccccc2OC(F)(F)F)nc1C(=O)Nc1ccc(Oc2ncnc3[nH]ccc23)cc1`: 22.5 µM, 16.2 µM, 32 µM and 22.8 µM.
`Cc1cc(=O)n(-c2cccc(C(F)(F)F)c2)nc1C(=O)Nc1ccc(Oc2ncnc3[nH]ccc23)cc1`: the IC50 was 3.46 µM in the assay on PC-3, 7.57 µM in the assay on A549, 4.56 µM in the assay on MCF7 and 9.47 µM in the assay with HepG2.
In the case of `O=C(Nc1ccc(Oc2ccnc3[nH]ccc23)cc1)c1nn(-c2ccccc2)ccc1=O`, the IC50 is 15 µM with PC-3, 10.5 µM in the assay with A549, 15.6 µM in the assay on MCF7 and 17.8 µM in the assay with HepG2.
On to `Cn1ccc2c(Oc3ccc(NC(=O)c4nn(-c5ccccc5)ccc4=O)cc3)ccnc21`, for which the IC50 in the assay with PC-3 stood at 58.2 µM; in the assay with A549, 51.7 µM; with MCF7, 45.1 µM; in the assay on HepG2, 56.2 µM.
Turning to `Cc1cc(=O)n(-c2ccccc2C(F)(F)F)nc1C(=O)Nc1ccc(Oc2ncnc3c2ccn3C)c(F)c1`, the 50% inhibitory concentration (IC50) in the assay with PC-3 is 25.9 µM; with A549, 35.4 µM; with MCF7, above 60 µM; in the assay with HepG2, above 60 µM.
Take `Cn1ccc2c(Oc3ccc(NC(=O)c4nn(-c5ccc(Cl)c(C(F)(F)F)c5)ccc4=O)cc3)ccnc21`: the IC50 is 10.3 µM with PC-3, 11.4 µM with A549, 15.2 µM in the assay on MCF7 and 23.4 µM in the assay with HepG2.
As for `Cn1ccc2c(Oc3ccc(NC(=O)c4nn(-c5ccc(Cl)c(F)c5)ccc4=O)cc3)ccnc21`, the half-inhibitory concentration (IC50) with PC-3 was 32.7 µM; in the assay with A549, above 60 µM; with MCF7, 16.8 µM; in the assay with HepG2, above 60 µM.
`Cc1cc(=O)n(-c2cccc(F)c2)nc1C(=O)Nc1ccc(Oc2ncnc3[nH]ccc23)c(F)c1`: the half-maximal inhibitory concentration (IC50) with PC-3 was found to be 6.68 µM; with A549, 31.4 µM; in the assay on MCF7 it was 32 µM; with HepG2 it was 23.1 µM.
`Cn1ccc2c(Oc3ccc(NC(=O)c4nn(-c5ccc(Cl)cc5)ccc4=O)cc3)ccnc21`: the IC50 in the assay with PC-3, with A549, in the assay with MCF7 and with HepG2 was above 60 µM each time.
Regarding `Cc1cc(=O)n(-c2ccccc2OC(F)(F)F)nc1C(=O)Nc1ccc(Oc2ncnc3c2ccn3C)c(F)c1`, the half-inhibitory concentration (IC50) in the assay with PC-3, in the assay on A549, in the assay on MCF7 and in the assay on HepG2 was above 60 µM throughout.
With `Cc1cc(=O)n(-c2ccc(F)cc2)nc1C(=O)Nc1ccc(Oc2ncnc3[nH]ccc23)cc1`, the IC50 in the assay on PC-3 was above 60 µM; with A549, above 60 µM; with MCF7, 4.8 µM; in the assay on HepG2, above 60 µM.
As to `Cc1cc(=O)n(-c2cccc(C(F)(F)F)c2)nc1C(=O)Nc1ccc(Oc2ncnc3[nH]ccc23)c(F)c1`, the IC50 in the assay on PC-3 was found to be 15.6 µM; in the assay with A549, 35.1 µM; in the assay with MCF7, 11.8 µM; in the assay with HepG2, 26.3 µM.
The matching figures for `Cn1ccc2c(Oc3ccc(NC(=O)c4nn(-c5ccc(Cl)cc5)ccc4=O)cc3F)ccnc21`: above 60 µM, above 60 µM, above 60 µM and above 60 µM.
In the same order, the values of `Cc1cc(=O)n(-c2ccc(Br)cc2F)nc1C(=O)Nc1ccc(Oc2ncnc3c2ccn3C)c(F)c1` are 6.67 µM, 14.4 µM, above 60 µM and above 60 µM.
In the case of `Cn1ccc2c(Oc3ccc(NC(=O)c4nn(-c5ccccc5)ccc4=O)cc3F)ccnc21`, the IC50 in the assay with PC-3, with A549, in the assay with MCF7 and in the assay with HepG2 was above 60 µM throughout.
As to `O=C(Nc1ccc(Oc2ccnc3[nH]ccc23)cc1)c1nn(-c2ccc(Br)cc2F)ccc1=O`, the concentration for half-maximal inhibition (IC50) in the assay with PC-3 was found to be 12.8 µM; with A549, 26.1 µM; with MCF7 it was 17.9 µM; in the assay on HepG2, 46.4 µM.
As for `O=C(Nc1ccc(Oc2ccnc3[nH]ccc23)c(F)c1)c1nn(-c2ccc(Cl)c(C(F)(F)F)c2)ccc1=O`, the IC50 in the assay on PC-3 came out at 5.5 µM; with A549 it was 13.4 µM; with MCF7, 11.6 µM; in the assay with HepG2, 11.9 µM.
In the same order, the values of `Cc1ccc(-n2nc(C(=O)Nc3ccc(Oc4ncnc5c4ccn5C)c(F)c3)c(C)cc2=O)cc1` are 50.5 µM, above 60 µM, above 60 µM and above 60 µM.
With `O=C(Nc1ccc(Oc2ccnc3[nH]ccc23)cc1)c1nn(-c2ccc(Cl)cc2)ccc1=O`, the 50% inhibitory concentration (IC50) with PC-3 amounted to 32.4 µM; in the assay on A549, 25.1 µM; in the assay on MCF7 it was 10.6 µM; with HepG2, 19.5 µM.
The matching figures for `Cc1cc(=O)n(-c2cccc(F)c2)nc1C(=O)Nc1ccc(Oc2ncnc3[nH]ccc23)cc1`: 14.6 µM, 34.8 µM, 9.67 µM and 3.18 µM.
Consider `Cc1cc(=O)n(-c2ccc(Br)cc2F)nc1C(=O)Nc1ccc(Oc2ncnc3c2ccn3C)cc1`, for which the half-inhibitory concentration (IC50) with PC-3 came out at 18.8 µM; in the assay with A549, 47.3 µM; with MCF7, 27.7 µM; in the assay on HepG2, 33.6 µM.
The matching figures for `O=C(Nc1ccc(Oc2ccnc3[nH]ccc23)c(F)c1)c1nn(-c2ccccc2)ccc1=O`: 38.6 µM, 56.8 µM, 34.9 µM and 24.9 µM.
The matching figures for `Cn1ccc2c(Oc3ccc(NC(=O)c4nn(-c5ccc(Cl)c(C(F)(F)F)c5)ccc4=O)cc3F)ccnc21`: 20.9 µM, 17.7 µM, 18.4 µM and 13.5 µM.

Source of the values: ChEMBL document CHEMBL4138148, “Discovery of novel pyrrolo-pyridine/pyrimidine derivatives bearing pyridazinone moiety as c-Met kinase inhibitors” (Eur J Med Chem, 2017).
